# Results taken from ChEMBL document CHEMBL1147687, “Identification and characterization of amino-piperidinequinolones and quinazolinones as MCHr1 antagonists” (Bioorg Med Chem Lett, 2006).
# What was measured:
# [1] = target: T1, Melanin-concentrating hormone receptor 1 (Homo sapiens, UniProt Q99705); assay: Inhibition of MCH-mediated calcium release in whole IMR32 cells by FLIPR; format: functional, cell-based, IMR-32
# [2] = target: T1, Melanin-concentrating hormone receptor 1; assay: Displacement of [125I]MCH from MCHr1 expressed in IMR32 cells; format: cell-based, IMR-32
# [3] = target: Voltage-gated inwardly rectifying potassium channel KCNH2 (Homo sapiens, UniProt Q12809); assay: Binding affinity to hERG stably transfected in HEK293 cells; format: cell-based
# [4] = Half life in DIO mouse brain at 10 mg/kg; format: ADME, organism-based; set-up: dose 10 mg/kg
# [5] = AUC in DIO mouse brain at 10 mg/kg; format: ADME, organism-based; set-up: dose 10 mg/kg
# [6] = AUC in DIO mouse plasma at 10 mg/kg; format: ADME, organism-based; set-up: dose 10 mg/kg
# [7] = Brain to plasma AUC ratio in DIO mouse at 10 mg/kg; format: ADME, organism-based; set-up: dose 10 mg/kg; conditions: read-out: Ratio AUC
# [8] = Cmax in DIO mouse brain at 10 mg/kg; format: ADME, organism-based; set-up: dose 10 mg/kg
# [9] = Plasma half life in DIO mouse at 10 mg/kg; format: ADME, organism-based; set-up: dose 10 mg/kg
# [10] = Cmax in DIO mouse plasma at 10 mg/kg; format: ADME, organism-based; set-up: dose 10 mg/kg
# T1 sequence (Q99705 whole entry): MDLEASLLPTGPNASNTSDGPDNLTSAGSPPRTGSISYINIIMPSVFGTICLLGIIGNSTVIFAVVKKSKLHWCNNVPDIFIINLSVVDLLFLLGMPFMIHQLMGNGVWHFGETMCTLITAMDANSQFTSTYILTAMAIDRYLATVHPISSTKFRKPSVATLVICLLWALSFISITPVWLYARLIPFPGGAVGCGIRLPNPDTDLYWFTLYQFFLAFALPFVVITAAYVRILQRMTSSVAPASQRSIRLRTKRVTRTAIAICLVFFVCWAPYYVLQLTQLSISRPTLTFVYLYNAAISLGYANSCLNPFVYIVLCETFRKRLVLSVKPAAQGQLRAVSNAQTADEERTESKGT
# Chain of Voltage-gated inwardly rectifying potassium channel KCNH2 (Q12809 whole entry): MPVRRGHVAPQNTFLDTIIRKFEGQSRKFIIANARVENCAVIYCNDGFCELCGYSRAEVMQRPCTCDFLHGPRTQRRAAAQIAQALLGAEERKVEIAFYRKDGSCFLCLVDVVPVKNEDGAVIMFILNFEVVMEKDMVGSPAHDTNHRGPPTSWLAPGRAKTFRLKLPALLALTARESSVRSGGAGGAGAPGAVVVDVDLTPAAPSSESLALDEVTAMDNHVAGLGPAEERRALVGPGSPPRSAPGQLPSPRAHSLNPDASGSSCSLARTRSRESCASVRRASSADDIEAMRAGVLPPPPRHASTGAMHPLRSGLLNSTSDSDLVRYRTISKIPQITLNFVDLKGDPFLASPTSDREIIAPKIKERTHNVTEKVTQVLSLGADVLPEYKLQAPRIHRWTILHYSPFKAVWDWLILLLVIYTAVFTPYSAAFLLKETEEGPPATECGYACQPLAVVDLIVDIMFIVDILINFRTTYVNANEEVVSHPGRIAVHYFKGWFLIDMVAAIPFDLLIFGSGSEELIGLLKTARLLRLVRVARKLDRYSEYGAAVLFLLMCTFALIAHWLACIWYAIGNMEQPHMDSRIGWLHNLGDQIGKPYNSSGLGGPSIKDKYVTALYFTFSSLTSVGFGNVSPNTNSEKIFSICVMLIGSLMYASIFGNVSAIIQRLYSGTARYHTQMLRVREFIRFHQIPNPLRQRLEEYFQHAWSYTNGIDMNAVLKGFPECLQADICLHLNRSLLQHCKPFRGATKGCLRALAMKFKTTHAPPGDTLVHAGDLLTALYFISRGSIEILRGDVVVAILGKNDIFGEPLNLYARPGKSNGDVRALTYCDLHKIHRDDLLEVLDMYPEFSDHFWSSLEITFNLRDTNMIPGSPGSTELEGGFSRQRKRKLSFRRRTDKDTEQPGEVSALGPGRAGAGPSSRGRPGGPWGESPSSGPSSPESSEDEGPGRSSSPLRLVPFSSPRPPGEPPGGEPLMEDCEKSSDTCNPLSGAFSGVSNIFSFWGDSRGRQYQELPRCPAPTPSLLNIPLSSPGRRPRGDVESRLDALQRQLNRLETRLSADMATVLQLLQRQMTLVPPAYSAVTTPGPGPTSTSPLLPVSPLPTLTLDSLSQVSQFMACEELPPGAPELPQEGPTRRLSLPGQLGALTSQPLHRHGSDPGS
SMILES,IC50 [1] [nM],IC50 [2] [nM],half-life [4] [h],AUC [5] [ng·h/mL],AUC [6] [ng·h/mL],Kp [7],Cmax [8] [ng/mL],half-life [9] [h],Cmax [10] [ng/mL],Ki [3] [nM]
COc1ccc2c(c1)c(NC1CCN(Cc3ccc4c(c3)OCO4)CC1)cc(=O)n2C,20,3,–,–,–,–,–,–,–,778
Cn1c(=O)nc(NC2CCN(Cc3ccc4ccccc4c3)CC2)c2cc(Cl)ccc21,72,7,–,–,–,–,–,–,–,160
O=c1cc(NC2CCN(Cc3ccc4c(c3)OCO4)CC2)c2cc(Cl)ccc2n1Cc1ccccn1,20,1.2,–,–,–,–,–,–,–,550
O=c1cc(NC2CCN(Cc3ccc4c(c3)OCO4)CC2)c2cc(Cl)ccc2[nH]1,26,4,–,–,–,–,–,–,–,–
Cn1c(=O)c(C#N)c(NC2CCN(Cc3ccc4ccccc4c3)CC2)c2cc(Cl)ccc21,194,12,–,–,–,–,–,–,–,> 2000
Cn1c(=O)c(C(=O)N2CCCC2)c(NC2CCN(Cc3ccc4c(c3)OCO4)CC2)c2cc(Cl)ccc21,53,16,–,–,–,–,–,–,–,> 2000
N#Cc1c(NC2CCN(Cc3ccc4c(c3)OCO4)CC2)c2cc(Cl)ccc2[nH]c1=O,20,15,–,–,–,–,–,–,–,420
Cn1c(=O)cc(NC2CCN(C/C=C/c3ccccc3)CC2)c2cc(Cl)ccc21,88,10,–,–,–,–,–,–,–,30
O=c1nc(NC2CC3CCC(C2)N3Cc2ccc3c(c2)OCO3)c2cc(Cl)ccc2n1CC(F)(F)F (stereo not drawn),31,4,–,–,–,–,–,–,–,120
Cn1c(=O)cc(NC2CCN(Cc3ccc4c(c3)OCO4)CC2)c2cc(OC(F)(F)F)ccc21,104,34,–,–,–,–,–,–,–,1800
Cn1c(=O)cc(NC2CCN(Cc3ccc4ccccc4c3)CC2)c2cc(Cl)ccc21,100,5,–,–,–,–,–,–,–,215
Cn1c(=O)cc(NC2CCN(Cc3ccc4c(c3)OCO4)CC2)c2cc(OC(F)F)ccc21,34,5,–,–,–,–,–,–,–,> 2000
O=c1cc(NC2CCN(Cc3ccc4c(c3)OCO4)CC2)c2cc(Cl)ccc2n1Cc1ccncc1,29,1.1,2.5,730,2100,0.29,200,2.3,680,355
O=c1cc(NC2CCN(Cc3ccc4ccccc4c3)CC2)c2cc(Cl)ccc2n1Cc1ccccn1,55,0.9,–,–,–,–,–,–,–,88
O=c1nc(NC2CCN(Cc3ccc4ccccc4c3)CC2)c2cc(Cl)ccc2n1CC(F)(F)F,62,5,–,–,–,–,–,–,–,150
O=c1cc(NC2CCN(Cc3ccc4c(c3)OCO4)CC2)c2cc(Cl)ccc2n1Cc1ccccc1,42,0.8,–,–,–,–,–,–,–,280

# Further lines, with some results ahead:
IC50 [1] [nM],IC50 [2] [nM],half-life [4] [h],AUC [5] [ng·h/mL],AUC [6] [ng·h/mL],Kp [7],Cmax [8] [ng/mL],half-life [9] [h],Cmax [10] [ng/mL],SMILES,Ki [3] [nM]
136,68,–,–,–,–,–,–,–,Cn1c(=O)nc(NC2CC3CCC(C2)N3Cc2ccc3c(c2)OCO3)c2cc(Cl)ccc21 (stereo in doubt; 4i),–
69,24,2,620,5900,0.11,160,1.9,1600,Cn1c(=O)c(C#N)c(NC2CCN(Cc3ccc4c(c3)OCO4)CC2)c2cc(Cl)ccc21,–
452,97,–,–,–,–,–,–,–,COC(=O)c1c(NC2CCN(Cc3ccc4c(c3)OCO4)CC2)c2cc(Cl)ccc2n(C)c1=O,1440
53,9,–,–,–,–,–,–,–,Cn1c(=O)nc(NC2CC3CCC(C2)N3Cc2ccc3c(c2)OCO3)c2cc(Cl)ccc21 (stereo in doubt; 4g),–
62,5,1.9,650,5100,0.13,230,1.6,2200,Cn1c(=O)nc(NC2CCN(Cc3ccc4c(c3)OCO4)CC2)c2cc(Cl)ccc21,150
50,12,–,–,–,–,–,–,–,CCCCCn1c(=O)nc(NC2CCN(Cc3ccc4c(c3)OCO4)CC2)c2cc(Cl)ccc21,135
66,12,–,–,–,–,–,–,–,Cn1c(=O)nc(NC2CCN(Cc3ccc4ncccc4c3)CC2)c2cc(Cl)ccc21,–
29,2,–,–,–,–,–,–,–,O=c1nc(NC2CCN(Cc3ccc4c(c3)OCO4)CC2)c2cc(Cl)ccc2n1CC(F)(F)F,445
